In publication PMC9917735, “Optimization of the Hemolysis Assay for the Assessment of Cytotoxicity” (International Journal of Molecular Sciences, 2023):
Where two headings read alike, the source gives them in different places.

Experiments:
[1] = tested on: washed human erythrocytes; assay: Hemolysis assay, washed human erythrocytes; settings: peptides 100 μM, 60 min 37 °C, pos. 10% Triton X-100, neg. PBS, 3 x 2 replicates
Method: Blood is drawn from a human or an animal, and next, the washed erythrocytes are incubated together with the compound or material under investigation. If the compound causes hemolysis, hemoglobin (along with other cellular constituents) will be released into the supernatant.
All blood was collected in Lithium Heparin tubes 4 mL (Greiner Bio-One, Kremsmünster, Austria) or Coagulation sodium citrate 3.2% tubes 3 mL (Greiner Bio-One).
These three peptides were synthesized by Genscript Inc. (Piscataway, NJ, USA), and stock solutions of 1 mg/mL were made from the purchased powders. […] All peptides were diluted to yield a 100 μM final concentration in the hemolysis assays.
Triton X-100 (T8787) and Tween-20 (P2287) detergents were purchased from Sigma Aldrich and diluted to obtain 10% stock solutions by weighing (w/v). A sodium Dodecyl Sulfate (SDS) 10% solution was purchased from Invitrogen (Waltham, MA, USA, 15553027). All subsequent dilutions annotated in figures were made from these stocks.
As soon as possible after phlebotomy, the blood samples were centrifuged at 1700× g for 5 min. The supernatant was removed by aspiration and 2 mL of PBS pH 7 was added. The washing step was repeated three times or until the supernatant was clear. After final aspiration, the remaining pellet was diluted 1:100 in PBS pH 7 to obtain a 1% erythrocyte suspension (or 1:100, 1:50, and 1:20 for assays testing the effect of erythrocyte concentration). For experiments using whole blood, the washing steps were not performed, but downstream experimentation was identical. For experiments performed with 96-well plates, 50 μL of test compound, water, or detergent were mixed with 50 μL of blood sample (1% erythrocyte suspension or whole blood). For experiments using larger volumes, 250 μL of test compound, water, or detergent were mixed with 250 μL blood sample in an Eppendorf tube. Samples were subsequently incubated at 37 °C for 60 min (or 15, 30, 60, 90, or 120 min for assays evaluating the effect of incubation time). After incubation, the plates/tubes were centrifuged at 1700× g for 5 min, and then 50 μL of the supernatants were transferred to transparent, flat-bottom 96-well plates (Anicrin, A013418). Finally, absorption was measured at 405, 530, and 570 nm in a Victor Nivo Multimode microplate reader (Perkin Elmer, Waltham, MA, USA).

human whole blood = settings: human whole blood, 60 min 37 °C; for Calculated hemolysis ratio: peptides 100 μM, neg. PBS, 3 x 2 replicates
[2] = previously well-characterized AMPs; ref [9],[33]; cited from earlier work
Method: OD measurements of human whole blood treated with hemolyzing agents or AMPs at 405 nm (A), 530 nm (B), and 570 nm (C) were recorded (Figure 6) and HRs calculated (Table 5). For comparison, we also included the two previously well-characterized AMPs melittin and polymyxin B, which exert high and low cytotoxicity, respectively. […] From 530 and 570 nm measurements, the expected conce ...

For `CC[C@H](C)[C@H](NC(=O)CN)C(=O)NCC(=O)N[C@@H](C)C(=O)N[C@H](C(=O)N[C@@H](CC(C)C)C(=O)N[C@@H](CCCCN)C(=O)N[C@H](C(=O)N[C@@H](CC(C)C)C(=O)N[C@H](C(=O)N[C@H](C(=O)NCC(=O)N[C@@H](CC(C)C)C(=O)N1CCC[C@H]1C(=O)N[C@@H](C)C(=O)N[C@@H](CC(C)C)C(=O)N[C@H](C(=O)N[C@@H](CO)C(=O)N[C@@H](Cc1c[nH]c2ccccc12)C(=O)N[C@H](C(=O)N[C@@H](CCCCN)C(=O)N[C@@H](CCCNC(=N)N)C(=O)N[C@@H](CCCCN)C(=O)N[C@@H](CCCNC(=N)N)C(=O)N[C@@H](CCC(N)=O)C(=O)N[C@@H](CCC(N)=O)C(N)=O)[C@@H](C)CC)[C@@H](C)CC)[C@@H](C)O)[C@@H](C)O)C(C)C)C(C)C` [Melittin, reference compound], the Calculated hemolysis ratio ([1]; 1% washed human erythrocytes, OD 530 nm) was 78.4 ± 4.3%, the Calculated hemolysis ratio ([1]; 1% washed human erythrocytes, OD 570 nm) was 79.8 ± 8.2% and the Calculated hemolysis ratio ([1]; Table 6: 1% washed human erythrocytes, OD 405 nm) was 84.4 ± 8.1%. For the same molecule, the “Blood clotting in whole blood” value (human whole blood; melittin 100 μM) was “clotting effect was also observed”, the Calculated hemolysis ratio (human whole blood; OD 405 nm (signal saturated), pos. 10% SDS) was 98.3 ± 1.4% and the Calculated hemolysis ratio (human whole blood; OD 530 nm, pos. 10% SDS) was 36.6 ± 8.7%. For the same molecule, the Calculated hemolysis ratio (human whole blood; OD 570 nm, pos. 10% Triton X-100 (table title; text says 10% SDS)) was 54 ± 15.5% and the “Cytotoxicity (qualitative)” value [2] was “high”.
